Test results reported in patent US20110251144A1, “MOLECULAR MODULATORS OF THE WNT/BETA-CATENIN PATHWAY” (MASSACHUSETTS INSTITUTE OF TECHNOLOGY, priority 2008, published 2011).
Entries after “also recorded” stand apart in the source; their conditions may differ. Where two headings read alike, the source gives them in different places.

Experiments:
[1] = test system: Axin2, Si/Gp100, Kit and other melanocytic genes; assay: Quantitative PCR of endogenous gene targets in B16 melanoma cells; format: cell-based, murine
Method: Cells were cultured for approximately 72 hours until they reached 80-90% confluency. RNA was purified using the RNeasy kit using the manufacturer's protocol (Qiagen; Maryland, MD). cDNA was synthesized using Superscript Reverse Transcriptase (Invitrogen; Grand Island, N.Y.). […] Quantitative PCR results presented in the manuscript are representative of experiments performed on a minimum of three biologic replicates.

B16 cells [2] = assay: Proliferation of B16 cells by MTT assay; format: cell-based, murine
[3] = Suitability for murine therapeutic trials (toxicity, serum levels); format: in vivo; details: mice
nuclear β-catenin = assay: Immunofluorescent staining of β-catenin in B16 cells; format: cell-based, murine; details: 10 mM lithium chloride or BIO, versus sodium chloride or DMSO
Method: A polyclonal rabbit anti-β-catenin antibody was used for detection of β-catenin (1:1000 dilution for immunoblot, 1:200 dilution for immunohistochemistry). Cells were grown on 18 mm glass coverslips, for 48-72 hours, fixed using 4% paraformaldahyde, permeabilized using 0.25% Triton X-100, and then blocked with 10% goat serum. Goat anti-rabbit Alexa Fluor-568 antibody (Molecular Probes; Eugene, Oreg.) was diluted 1:1000. Cells were counterstained for nucleic acid with DAPI (Molecular Probes; Eugene, Oreg.). Paraffin-embedded nevus sections were stained using an antibody dilution of 1:200. Cellular lysates were obtained by lysing cells on plate with a 0.1% NP-40 based buffer and analyzed by NuPage 4-12% gradient gels (Invitrogen; Grand Island, N.Y.). The WNT5A antibody was obtained from Cell Signaling Technologies (Danvers, Mass.).

[4] = test system: Wnt/β-catenin signaling (beta-catenin activated reporter, BAR); assay: High throughput small molecule screen, Wnt/β-catenin reporter in RKO cells; format: cell-based, human
[5] = test system: Wnt/β-catenin signaling (beta-catenin activated reporter, BAR); assay: High throughput small molecule screen, beta-catenin activated reporter (BAR) in HT22 cells; format: cell-based, mouse
Method: Compounds were dissolved in dimethylsulphoxide (DMSO). For the primary screen, performed in duplicate, HT22 cells stably expressing the beta-catenin activated reporter (BAR) were cultured in growth medium (DMEM/10% FBS/1% antibiotic). 3000 cells per well were transferred to 384-well clear bottom plates (Nalgene Nunc; Rochester, N.Y.) in 30 μL of growth medium. The following day, […] of compound and 10 μL of either growth media or WNT3A conditioned media (E.C.50 dose) was transferred to the cells. The next day each well was imaged using transmitted light with the ImageXpress Micro (Molecular devices; Sunnyvale, Calif.) followed by the addition of 10 μL of Steady-Glo (Promega; Madison, Wis.) as per the manufacture's instructions, and luminescence measurement on an EnVision Multilabel plate reader (PerkinElmer; Waltham, Mass.). Viability was scored by analyzing the ImageXpress images. As described in detail in Seiler et al. (Seiler et al., Nucleic Acids Res. 36:D351 (2008), which is hereby incorporated by reference in its entirety), each compound well received an algebraically signed Z-score corresponding to the number of standard deviations it fell above or below the mean of a well-defined mock-treatment distribution of DMSO controls. Z-score normalized data from the growth media stimulus group were sorted by average percent change. The fold-increase over the background of DMSO controls for each treatment was also calculated. Top compounds with the greatest percent change of activity with the growth media were then resorted based on the percent change with the WNT3A stimulus.
These compounds represent FDA approved compounds and drugs or known bioactive molecules. RKO (human colorectal carcinoma red line) and HT22 (mouse hyppocampal line) cell lines were screened. The lines were tested without a stimulus, in presence of an E.C.50 dose of Wnt 3A condition media and in presence of a subthreshold dose of LiCl.

B16 melanoma cells = assay: B16 footpad tumor inoculation, tumor size and metastasis in C57BL/6 mice; format: in vivo
Method: Footpad injections of transduced B16 melanoma cells and measurement of popliteal lymph node and lung metastasis was performed as previously described (Murakami et al., Cancer Res. 62:7328 (2002), which is hereby incorporated by reference in its entirety). […] Fumagalli et al., Exp. Neurol. 198:114 (2006), which are hereby incorporated by reference in their entirety). […] All animal studies were performed using IACUC protocols approved by institutional review boards.

B16 cells [6] = assay: Pigmentation of cultured B16 cells; format: cell-based, murine; details: B16 cells treated for 2 passages, 10 μM
[7] = test system: human melanoma xenografts; details: mouse model, Namkoong et al. 2007; cited from earlier work
Axin2 promoter = assay: Secondary screen, firefly luciferase under the Axin2 promoter in HEK293T cells; format: cell-based; details: alone and with WNT3A conditioned media
[8] = 10 mM lithium chloride or 1 μM BIO
[9] = RKO cells, in presence of a subthreshold dose of LiCl
[10] = RKO cells, in presence of an E.C.50 dose of Wnt 3A condition media
[11] = HT22 cells, in presence of a subthreshold dose of LiCl
[12] = HT22 cells, in presence of an E.C.50 dose of Wnt 3A condition media

O=C1Nc2cc(Br)ccc2/C1=C1/Nc2ccccc2/C1=N\O [BIO, 6-bromoindirubin-3′-oxime]
Axin2 levels by quantitative PCR [1, 8]: increased Axin2 levels
Proliferation by MTT assay (B16 cells [2]; [8]): decreased proliferation
Obstacles to murine therapeutic trials [3]: several obstacles relating to both toxicity
Nuclear β-catenin by immunofluorescent staining (nuclear β-catenin): increased nuclear β-catenin

Cl.Cl.FC(F)(F)c1ccc2c(c1)N(CCCN1CCN(CCCl)CC1)c1ccccc1S2 [Fluphenazine-N-2-chloroethane, Dihydrochloride]
RKO Li [4]: 4.27
RKO Wnt3a [4]: 0.08
HT22 Li [5]: 1.32
HT22 Wnt3a [5]: 0.13

Cc1[nH]c(=O)c(C#N)cc1-c1ccncc1 [milrinone]
RKO Li [4]: 1.00
RKO Wnt3a [4]: 1.20
HT22 Li [5]: 0.98
HT22 Wnt3a [5]: 1.75

Nc1nc2ccc(OC(F)(F)F)cc2s1 [riluzole]
Expression of melanocytic genes ([1]; 72 hours, 10 mM lithium chloride or 10 μM riluzole): elevation in levels of melastatin (Trpm1) and Kit transcripts; also recorded: upregulation of melanocytic genes
Sentinel popliteal lymph node metastasis (Firefly luciferase) (B16 melanoma cells; 9 mice per group, versus control mice with no treatment): significantly decreased metastasis
Tumor size (B16 melanoma cells; after 21 days, treatment initiated one week post-injection, oral in drinking water): No significant difference
Lung metastasis, mice affected (B16 melanoma cells; versus 3 out of 9 control mice): 0 out of 9
Proliferation by MTT assay (B16 cells [2]; three days, 10 μM riluzole): decreased proliferation
Pigmentation (B16 cells [6]): increased pigmentation
Proliferation / growth of human melanoma xenografts [7]: could decrease proliferation of human melanoma xenografts
Activation of firefly luciferase under the Axin2 promoter (Axin2 promoter): both on its own as well as in synergy with WNT3A conditioned media

CCCCCCCCCCCCCCCCCC(=O)O[C@H](CC(=O)[O-])C[N+](C)(C)C [stearoylcarnitine]
RKO Li [4, 9]: 0.92
RKO Wnt3a [4, 10]: 0.10
HT22 Li [5, 11]: 3.21
HT22 Wnt3a [5, 12]: 0.38

azathioprine
RKO Li [4, 9]: 1.06
RKO Wnt3a [4, 10]: 1.30
HT22 Li [5, 11]: 0.76
HT22 Wnt3a [5, 12]: 2.67
